Values after ≈ are worked out from the molar mass of the structure shown.
Assays:
hERG channel = hERG channel (Homo sapiens, UniProt Q12809); experiment: hERG manual patch clamp assay; assay type: cell-based; details: HEK 293 cells stably expressing hERG channel, pH 7.35, 10 μM compound
Procedure: Cell Lines and Cell Culture
HEK 293 cell line stably expressing hERG channel (Cat # K1236) was purchased from Invitrogen. The cells were cultured in 85% DMEM, 10% dialyzed FBS, 0.1 mM NEAA, 25 mM HEPES, 100 U/mL Penicillin-Streptomycin and 5 μg/mL Blasticidin and 400 μg/mL Geneticin. Cells were split using TrypLE™ Express about three times a week, and maintained between ˜40% to ˜80% confluence. Before the assay, the cells were transferred onto the coverslips at 5×10^5 cells/per 6 cm cell culture dish and induced with doxycycline at 1 μg/mL for 48 hours.
• 1) External solution (in mM): 132 NaCl, 4 KCl, 3 CaCl2, 0.5 MgCl2, 11.1 glucose, and 10 HEPES (pH adjusted to 7.35 with NaOH) • 2) Internal solution (in mM): 140 KCl, 2 MgCl2, 10 EGTA, 10 HEPES and 5 MgATP (pH adjusted to 7.35 with KOH) • 3) hERG currents were tested in presence of 10 μM compound concentration with final concentration of DMSO of 0.1%. Experimental Procedure • 1) Removed the coverslip from the cell culture dish and placed it on the microscope stage in bath chamber. • 2) Located a desirable cell using the 10× objective. Located the tip of the electrode under the microscope using the 10× objective by focusing above the plane of the cells. Once the tip was in focus, advanced the electrode downwards towards the cell using the coarse controls of the manipulator, while simultaneously moving the objective to keep the tip in focus. • 3) When directly over the cell, switched to the 40× objective and used the fine controls of the manipulator to approach the surface of the cell in small steps. • 4) Applied gentle suction through the side-port of the electrode holder to form a gigaohm seal. • 5) Used the Cfast to remove the capacity current that was in coincidence with the voltage step. Obtained the whole cell configuration by applying repetitive, brief, strong suction until the membrane patch ruptured. • 6) Set membrane potential to −60 mV at this point to ensure that hERG channels were not • open. The spikes of capacity current should then be cancelled using the Cslow on the amplifier. 7) Set holding potential to −90 mV for 500 ms; recorded current at 50 kHz and filtered at 10 kHz. Leaking current was tested at −80 mV for 500 ms. • 8) The hERG current was elicited by depolarizing at +30 mV for 4.8 seconds and then the voltage was taken back to −50 mV for 5.2 seconds to remove the inactivation and observe the deactivating tail current. The maximum amount of tail current size was used to determine hERG current amplitude. • 9) Recorded current for 120 seconds to assess the current stability. Only stable cells with recording parameters above threshold were applied for the compound administrations. • 10) Firstly vehicle control was applied to the cells to establish the baseline. […] In order to ensure the good performance of cultured cells and operations, the positive control, Dofetilide, with 5 dose concentration was also used to test the same batch of cells. Data Analysis
The following criteria were used to determine data acceptability. • 1) Initial seal resistance >1 GΩ; • 2) Leak currents <50% of the control peak tail currents at any time; • 3) The peak tail amplitude >250 pA; • 4) Membrane resistance Rm>500 MΩ; • 5) Access resistance (Ra)<10 MΩ; • 6) Apparent run-down of peak current <2.5% per min.
Data that met the above criteria for hERG current quality were further analyzed as the following steps. • 1) Percent hERG current inhibition was calculated using the following equation. • Note: PatchMaster or Clampfit software was used to extract the peak current from the original data.
[formula] • 2) The dose response curve of test compounds was plotted with percentage of hERG current inhibition against the concentration of test compounds using Graphpad Prism 6.0, and fit to a sigmoid dose-response curve with a variable slope.

[1] = system: Human Heme Oxygenase-1 (HMOX-1); experiment: ELISA assay to measure human heme oxygenase-1 (HMOX-1) in HepG2 lysate; assay type: cell-based; details: for EC50: human HMOX1 protein level in HepG2 lysate, * = average of 2 or more EC50 determinations, NA = Not Active, read-out: EC50
Outline: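 Treated HepG2 cells were lysed in PBS with 0.5% Triton X100, 1 mM EDTA and protease inhibitors, and lysates were diluted 1:20. HO-1 was measured by sandwich ELISA (biotinylated detection antibody, streptavidin-HRP, chemiluminescence) at room temperature against a standard curve from 20 ng/ml. EC50 and fold change were expressed relative to DMSO control.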

Kinetic solubility = assay type: physicochemical; details: Dulbecco's phosphate buffer saline (DPBS), aqueous buffer, kinetic from dmso stock, DPBS pH 7.4, 25° C., 200 μM test compound
Outline: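 Compound from 10 mM DMSO stock diluted to 200 μM final in DPBS pH 7.4 and, separately, in DMSO, in duplicate. Shaken 16 h at 25 °C, then centrifuged 20 min at 25 °C. Supernatant analysed by HPLC.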

hERG channel, sequence (Q12809 whole entry): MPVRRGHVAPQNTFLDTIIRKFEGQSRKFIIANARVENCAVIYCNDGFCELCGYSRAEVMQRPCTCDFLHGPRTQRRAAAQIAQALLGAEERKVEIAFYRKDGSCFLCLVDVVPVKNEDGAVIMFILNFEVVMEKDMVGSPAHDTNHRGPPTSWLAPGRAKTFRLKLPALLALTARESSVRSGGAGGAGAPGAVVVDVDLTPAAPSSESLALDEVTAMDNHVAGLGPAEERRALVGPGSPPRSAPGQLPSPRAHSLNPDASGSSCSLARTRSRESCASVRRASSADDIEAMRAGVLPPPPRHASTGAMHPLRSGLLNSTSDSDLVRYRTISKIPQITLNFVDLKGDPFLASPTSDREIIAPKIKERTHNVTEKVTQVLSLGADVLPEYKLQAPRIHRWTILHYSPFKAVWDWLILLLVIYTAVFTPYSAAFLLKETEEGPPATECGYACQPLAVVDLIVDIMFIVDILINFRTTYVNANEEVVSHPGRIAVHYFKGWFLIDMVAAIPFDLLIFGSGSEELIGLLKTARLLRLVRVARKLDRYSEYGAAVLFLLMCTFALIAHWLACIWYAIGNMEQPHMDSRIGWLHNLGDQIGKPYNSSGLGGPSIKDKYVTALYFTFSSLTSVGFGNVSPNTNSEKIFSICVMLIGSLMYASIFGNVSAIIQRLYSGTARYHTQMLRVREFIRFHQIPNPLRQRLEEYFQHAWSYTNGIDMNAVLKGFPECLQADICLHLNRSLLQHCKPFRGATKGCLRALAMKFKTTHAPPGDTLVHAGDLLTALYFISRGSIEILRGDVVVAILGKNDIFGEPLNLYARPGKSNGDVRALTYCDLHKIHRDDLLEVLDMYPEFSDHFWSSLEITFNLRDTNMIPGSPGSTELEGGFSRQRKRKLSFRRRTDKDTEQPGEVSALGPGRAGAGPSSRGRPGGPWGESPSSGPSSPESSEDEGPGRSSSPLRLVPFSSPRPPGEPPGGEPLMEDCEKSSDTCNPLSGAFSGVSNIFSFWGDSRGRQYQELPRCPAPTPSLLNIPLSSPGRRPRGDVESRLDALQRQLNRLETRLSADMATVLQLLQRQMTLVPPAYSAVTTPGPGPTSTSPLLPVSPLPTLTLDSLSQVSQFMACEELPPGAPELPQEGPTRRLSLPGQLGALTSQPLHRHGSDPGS

| Maximum Fold induction ([1]; fold change of human HMOX1 protein level relative to DMSO control, HepG2) | EC50 [1] | solubility at 16 h (Kinetic solubility) | SMILES | inhibition at 10 µM (hERG channel) |
| --- | --- | --- | --- | --- |
|  | 700 nM | 11.7 µM (≈ 4.11 µg/mL) | Cn1c(Nc2nc3ccccc3o2)nc2cc(C(=O)NCCO)ccc21 [Example 16, 2-(benzo[d]oxazol-2-ylamino)-N-(2-hydroxyethyl)-1-methyl-1H-benzo[d]imidazole-5-carboxamide] | 35% |
|  | 700 nM | 12.4 µM | Cl.Cn1c(Nc2nc3ccccc3o2)nc2cc(C(=O)NCCN)ccc21 [Example 18, N-(2-aminoethyl)-2-(benzo[d]oxazol-2-ylamino)-1-methyl-1H-benzo[d]imidazole-5-carboxamide hydrochloride] | 12% |
|  | 1800 nM |  | CN(C)CC(=O)NCCNC(=O)c1ccc2c(c1)nc(Nc1nc3ccccc3o1)n2C [Example 19, 2-(benzo[d]oxazol-2-ylamino)-N-(2-(2-(dimethylamino)acetamido)ethyl)-1-methyl-1H-benzo[d]imidazole-5-carboxamide] | 29% |
|  | 1000 nM | 7.3 µM (≈ 3.07 µg/mL) | Cn1c(Nc2nc3ccccc3o2)nc2cc(C(=O)NCCN3CCOCC3)ccc21 [Example 20, 2-(benzo[d]oxazol-2-ylamino)-1-methyl-N-(2-morpholinoethyl)-1H-benzo[d]imidazole-5-carboxamide] | 59% |
|  | 2100 nM | > 20 µM | CC(O)CNC(=O)c1ccc2c(c1)nc(Nc1nc3ccccc3o1)n2C (centres unmarked) [Example 23, 2-(benzo[d]oxazol-2-ylamino)-N-(2-hydroxypropyl)-1-methyl-1H-benzo[d]imidazole-5-carboxamide] | 24% |
|  | 2200 nM | 6.1 µM (≈ 2.5 µg/mL) | CC(O)COCCNC(=O)c1ccc2c(c1)nc(Nc1nc3ccccc3o1)n2C (centres unmarked) [Example 25] | 8% |
|  | 2000 nM | 8.6 µM (≈ 3.38 µg/mL) | Cn1c(Nc2nc3ccccc3o2)nc2cc(C(=O)NCC3(O)COC3)ccc21 [Example 26, 2-(benzo[d]oxazol-2-ylamino)-N-((3-hydroxyoxetan-3-yl)methyl)-1-methyl-1H-benzo[d]imidazole-5-carboxamide] | 18% |
|  | 1600 nM | 11.3 µM (≈ 4.57 µg/mL) | Cn1c(Nc2nc3ccccc3o2)nc2cc(C(=O)NCCN3CCCC3)ccc21 [Example 28, 2-(benzo[d]oxazol-2-ylamino)-1-methyl-N-(2-(pyrrolidin-1-yl)ethyl)-1H-benzo[d]imidazole-5-carboxamide] | 64% |
|  | 1200 nM | 11.2 µM (≈ 4.76 µg/mL) | COCCOc1ccc2nc(Nc3nc4cc(C(=O)NCCO)ccc4n3C)oc2c1 [Example 57, N-(2-hydroxyethyl)-2-((6-(2-methoxyethoxy)benzo[d]oxazol-2-yl)amino)-1-methyl-1H-benzo[d]imidazole-5-carboxamide] | 15% |
|  | 660 nM | < 5 µM | COCCNC(=O)c1ccc2c(c1)nc(Nc1nc3ccc(F)cc3o1)n2C [Example 69, 2-((6-fluorobenzo[d]oxazol-2-yl)amino)-N-(2-methoxyethyl)-1-methyl-1H-benzo[d]imidazole-5-carboxamide] | 38% |
|  |  | 10.5 µM (≈ 4.14 µg/mL) | CN(C)CCONC(=O)c1ccc2c(c1)nc(Nc1nc3ccccc3o1)n2C [Example 123, 2-(benzo[d]oxazol-2-ylamino)-N-(2-(dimethylamino)ethoxy)-1-methyl-1H-benzo[d]imidazole-5-carboxamide] | 54% |

Continued, compound first:

| SMILES | Maximum Fold induction ([1]; fold change of human HMOX1 protein level relative to DMSO control, HepG2) | EC50 [1] | solubility at 16 h (Kinetic solubility) | inhibition at 10 µM (hERG channel) |
| --- | --- | --- | --- | --- |
| CC1CCc2nc(Nc3nc4cc(C(=O)NCCOCCO)ccc4n3C)sc2C1 (centres unmarked) [Ex 7, N-(2-(2-hydroxyethoxy)ethyl)-1-methyl-2-((6-methyl-4,5,6,7-tetrahydrobenzo[d]thiazol-2-yl)amino)-1H-benzo[d]imidazole-5-carboxamide] |  |  |  | 6% |
| COCCNC(=O)c1ccc2c(c1)nc(Nc1nc3cc(OC(F)(F)F)ccc3[nH]1)n2C [Example 14, N-(2-methoxyethyl)-1-methyl-2-((5-(trifluoromethoxy)-1H-benzo[d]imidazol-2-yl)amino)-1H-benzo[d]imidazole-5-carboxamide] | 6.25 fold | 2300 nM | 4.2 µM (≈ 1.88 µg/mL) | 87% |
| Cn1c(Nc2nc3ccc(C(F)(F)F)cc3o2)nc2cc(C(=O)O)ccc21 [Example 31, 1-methyl-2-((6-(trifluoromethyl)benzo[d]oxazol-2-yl)amino)-1H-benzo[d]imidazole-5-carboxylic acid] |  | 1100 nM | 14.9 µM (≈ 5.61 µg/mL) | 0% |
| Cn1c(Nc2nc3ccc(C(F)(F)F)cc3o2)nc2cc(C(=O)NCCOCCO)ccc21 [Example 34] |  | 800 nM | 8 µM (≈ 3.71 µg/mL) | 61% |
| Cn1c(Nc2nc3ccc(OC(F)(F)F)cc3o2)nc2cc(C(=O)NCCO)ccc21 [Example 53, N-(2-hydroxyethyl)-1-methyl-2-((6-(trifluoromethoxy)benzo[d]oxazol-2-yl)amino)-1H-benzo[d]imidazole-5-carboxamide] |  | 1100 nM | 7.3 µM (≈ 3.18 µg/mL) | 70% |
| COCCOc1ccc2nc(Nc3nc4cc(C(=O)NCCOCCO)ccc4n3C)oc2c1 [Example 58, N-(2-(2-hydroxyethoxy)ethyl)-2-((6-(2-methoxyethoxy)benzo[d]oxazol-2-yl)amino)-1-methyl-1H-benzo[d]imidazole-5-carboxamide] |  | 1700 nM | 7.7 µM (≈ 3.62 µg/mL) | 11% |
| Cn1c(Nc2nc3ccc(OC(F)F)cc3o2)nc2cc(C(=O)O)ccc21 [Example 62, 2-((6-(difluoromethoxy)benzo[d]oxazol-2-yl)amino)-1-methyl-1H-benzo[d]imidazole-5-carboxylic acid] |  | 5100 nM | 16.2 µM (≈ 6.06 µg/mL) | 13% |
| Cn1c(Nc2nc3cc(F)ccc3[nH]2)nc2cc(C(=O)O)ccc21 [Example 73, 2-((5-fluoro-1H-benzo[d]imidazol-2-yl)amino)-1-methyl-1H-benzo[d]imidazole-5-carboxylic acid] |  | 2900 nM |  | 5% |
| COCCn1c(Nc2nc3cc(OC(F)(F)F)ccc3[nH]2)nc2cc(C(=O)O)ccc21 [Example 75, 1-(2-methoxyethyl)-2-((5-(trifluoromethoxy)-1H-benzo[d]imidazol-2-yl)amino)-1H-benzo[d]imidazole-5-carboxylic acid] |  | 370 nM | 11.6 µM (≈ 5.05 µg/mL) | 9% |
| CCn1c(Nc2nc3ccc(OC(F)(F)F)cc3o2)nc2cc(C(=O)NCCO)ccc21 [Example 86, 1-ethyl-N-(2-hydroxyethyl)-2-((6-(trifluoromethoxy)benzo[d]oxazol-2-yl)amino)-1H-benzo[d]imidazole-5-carboxamide] |  | 1300 nM | 7.1 µM (≈ 3.19 µg/mL) | 64% |

— patent publication US10766888B1, “HMOX1 inducers” (Mitobridge Inc., priority 2019, dated 2020)
